{"source": "ChEMBL document CHEMBL5113520", "about": "“From a Cone Snail Toxin to a Competitive MC4R Antagonist” (J Med Chem, 2022)", "key": {"Homo sapiens [1]": {"organism": "Homo sapiens", "test": "Selectivity ratio of Ki for human MC1R expressed in CHO cells to Ki for human MC4R expressed in CHO cells", "format": "cell-based"}, "Homo sapiens [2]": {"organism": "Homo sapiens", "test": "Selectivity ratio of Ki for human […] expressed in CHO cells to Ki for human MC4R expressed in CHO cells", "format": "cell-based"}, "Melanocortin receptor 4 [3]": {"molecular_target": "T1, Melanocortin receptor 4 (Homo sapiens, UniProt P32245)", "T1 sequence (P32245 whole entry)": "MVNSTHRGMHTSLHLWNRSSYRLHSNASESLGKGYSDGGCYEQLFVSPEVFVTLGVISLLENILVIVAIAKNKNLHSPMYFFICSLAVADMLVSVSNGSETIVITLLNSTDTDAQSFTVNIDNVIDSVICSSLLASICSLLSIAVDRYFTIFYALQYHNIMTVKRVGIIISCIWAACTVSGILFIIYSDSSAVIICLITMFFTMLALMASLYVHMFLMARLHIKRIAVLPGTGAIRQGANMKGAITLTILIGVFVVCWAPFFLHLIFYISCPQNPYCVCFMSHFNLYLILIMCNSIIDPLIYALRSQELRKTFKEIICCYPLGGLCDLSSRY", "test": "Antagonist activity at human MC4R in HEK293SL cells assessed as Gs activation at 30 uM incubated for 30 mins in presence of alpha-MSH by BRET assay", "format": "functional, cell-based", "details": "filed as antagonist"}, "Melanocortin receptor 4 [4]": {"molecular_target": "T1, Melanocortin receptor 4", "test": "Antagonist activity at human MC4R in HEK293SL cells assessed as G15 activation incubated for 30 mins in presence of NDP-alpha-MSH by BRET assay", "format": "functional, cell-based", "details": "filed as antagonist"}, "Homo sapiens [5]": {"organism": "Homo sapiens", "test": "Selectivity ratio of Ki for human MC3R expressed in HEK293 cells to Ki for human MC4R expressed in CHO cells", "format": "cell-based"}, "Melanocortin receptor 5": {"molecular_target": "Melanocortin receptor 5 (Homo sapiens, UniProt P33032)", "sequence (P33032 whole entry)": "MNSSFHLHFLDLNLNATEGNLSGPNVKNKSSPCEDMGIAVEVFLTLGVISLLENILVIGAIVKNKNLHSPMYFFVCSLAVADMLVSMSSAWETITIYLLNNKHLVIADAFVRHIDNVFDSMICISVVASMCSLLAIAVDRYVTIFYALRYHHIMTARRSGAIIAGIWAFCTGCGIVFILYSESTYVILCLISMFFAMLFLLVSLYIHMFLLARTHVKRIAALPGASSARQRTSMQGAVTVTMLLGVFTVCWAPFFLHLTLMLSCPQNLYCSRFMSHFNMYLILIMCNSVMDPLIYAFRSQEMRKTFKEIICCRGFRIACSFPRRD", "test": "Displacement of [125I]-NDP-alpha-MSH from human MC5R expressed in CHO cells by Topcount beta counter analysis", "format": "cell-based"}, "Melanocortin receptor 4 [6]": {"molecular_target": "T1, Melanocortin receptor 4", "test": "Displacement of [125I]-NDP-alpha-MSH from human MC4R expressed in CHO cells by Topcount beta counter analysis", "format": "cell-based"}, "Melanocortin receptor 4 [7]": {"molecular_target": "T1, Melanocortin receptor 4", "test": "Antagonist activity at human MC4R in HEK293SL cells assessed as beta-arrestin2 activation incubated for 30 mins in presence of NDP-alpha-MSH by BRET assay", "format": "functional, cell-based", "details": "filed as antagonist"}, "[8]": {"molecular_target": "Melanocyte-stimulating hormone receptor (Homo sapiens, UniProt Q01726)", "sequence (Q01726 whole entry)": "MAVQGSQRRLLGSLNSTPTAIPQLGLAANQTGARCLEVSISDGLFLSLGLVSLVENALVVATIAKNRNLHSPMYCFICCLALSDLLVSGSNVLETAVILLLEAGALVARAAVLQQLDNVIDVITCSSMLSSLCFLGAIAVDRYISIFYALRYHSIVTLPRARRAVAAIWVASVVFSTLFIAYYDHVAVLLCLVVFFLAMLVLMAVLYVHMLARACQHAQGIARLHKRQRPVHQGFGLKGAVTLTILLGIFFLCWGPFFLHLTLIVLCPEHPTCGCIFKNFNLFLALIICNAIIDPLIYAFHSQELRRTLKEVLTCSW", "test": "Displacement of [125I]-NDP-alpha-MSH from human MC1R expressed in CHO cells by Topcount beta counter analysis", "format": "cell-based"}, "[9]": {"molecular_target": "T2, Type-1 angiotensin II receptor (Homo sapiens) (UniProt P30556)", "T2 sequence (whole entry)": "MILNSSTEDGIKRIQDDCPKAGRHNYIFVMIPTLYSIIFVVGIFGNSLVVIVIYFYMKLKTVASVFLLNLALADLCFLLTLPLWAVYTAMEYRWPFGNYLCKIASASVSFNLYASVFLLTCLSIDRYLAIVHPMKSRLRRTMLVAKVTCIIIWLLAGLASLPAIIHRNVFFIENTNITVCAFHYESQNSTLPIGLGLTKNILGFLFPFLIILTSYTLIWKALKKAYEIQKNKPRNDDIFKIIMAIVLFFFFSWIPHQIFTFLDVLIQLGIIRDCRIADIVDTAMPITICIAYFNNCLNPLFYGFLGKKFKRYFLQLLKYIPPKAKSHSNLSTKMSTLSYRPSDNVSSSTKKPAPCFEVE", "test": "Inhibition of human AT1R expressed in CHO cells at 50 uM by Topcount beta counter analysis relative to control", "format": "cell-based"}, "Melanocortin receptor 3": {"molecular_target": "Melanocortin receptor 3 (Homo sapiens, UniProt P41968)", "sequence (P41968 whole entry)": "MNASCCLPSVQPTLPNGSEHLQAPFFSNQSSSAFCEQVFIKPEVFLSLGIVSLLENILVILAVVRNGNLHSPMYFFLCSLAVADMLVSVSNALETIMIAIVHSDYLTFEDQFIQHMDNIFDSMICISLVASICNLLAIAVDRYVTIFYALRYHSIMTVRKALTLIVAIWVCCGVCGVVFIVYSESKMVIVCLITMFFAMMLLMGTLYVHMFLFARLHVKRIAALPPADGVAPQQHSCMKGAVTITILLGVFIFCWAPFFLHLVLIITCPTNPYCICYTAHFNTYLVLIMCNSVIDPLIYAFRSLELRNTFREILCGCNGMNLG", "test": "Displacement of [125I]-NDP-alpha-MSH from human MC3R expressed in HEK293 cells by Topcount beta counter analysis", "format": "cell-based"}, "Melanocortin receptor 4 [10]": {"molecular_target": "T1, Melanocortin receptor 4", "test": "Antagonist activity at human MC4R in HEK293SL cells assessed as Gs activation incubated for 30 mins in presence of alpha-MSH by BRET assay", "format": "functional, cell-based", "details": "filed as antagonist"}, "Melanocortin receptor 4 [11]": {"molecular_target": "T1, Melanocortin receptor 4", "test": "Antagonist activity at human MC4R in HEK293SL cells assessed as Gs activation incubated for 30 mins in presence of NDP-alpha-MSH by BRET assay", "format": "functional, cell-based", "details": "filed as antagonist"}, "Melanocortin receptor 4 [12]": {"molecular_target": "T1, Melanocortin receptor 4", "test": "Antagonist activity at human MC4R in HEK293SL cells assessed as beta-arrestin2 activation incubated for 30 mins in presence of alpha-MSH by BRET assay", "format": "functional, cell-based", "details": "filed as antagonist"}, "Melanocortin receptor 4 [13]": {"molecular_target": "T1, Melanocortin receptor 4", "test": "Antagonist activity at human MC4R in HEK293SL cells assessed as G15 activation incubated for 30 mins in presence of alpha-MSH by BRET assay", "format": "functional, cell-based", "details": "filed as antagonist"}}, "note": "Activity calls are given as the source filed them. The calls are words filed in the database; no cut-off is given here.", "data": [{"substance": "H-LFHYQQKQKPPGFKGKFQQFKLRPP-OH", "values": [{"measurement": "Ratio Ki", "setting": "Homo sapiens [1]", "value": 13}, {"measurement": "Ratio Ki", "setting": "Homo sapiens [2]", "value": 13}, {"measurement": "Activity", "setting": "Melanocortin receptor 4 [3]", "value": "Active"}, {"measurement": "Kb", "setting": "Melanocortin receptor 4 [4]", "value": 3, "unit": "µM"}, {"measurement": "Ratio Ki", "setting": "Homo sapiens [5]", "value": 3}, {"measurement": "Ki", "setting": "Melanocortin receptor 5; read-out: Ki", "value": 0.195, "unit": "µM"}, {"measurement": "Ki", "setting": "Melanocortin receptor 5; read-out: pKi (converted)", "value": 0.182, "unit": "µM"}, {"measurement": "Ki", "setting": "Melanocortin receptor 4 [6]; read-out: Ki", "value": 0.015, "unit": "µM"}, {"measurement": "Ki", "setting": "Melanocortin receptor 4 [6]; read-out: pKi (converted)", "value": 0.0135, "unit": "µM"}, {"measurement": "Kb", "setting": "Melanocortin receptor 4 [7]", "value": 3.8, "unit": "µM"}, {"measurement": "Ki", "setting": "[8]; read-out: Ki", "value": 0.197, "unit": "µM"}, {"measurement": "Ki", "setting": "[8]; read-out: pKi (converted)", "value": 0.182, "unit": "µM"}, {"measurement": "inhibition", "setting": "[9]", "value": 77, "unit": "%"}, {"measurement": "Ki", "setting": "Melanocortin receptor 3; read-out: Ki", "value": 0.041, "unit": "µM"}, {"measurement": "Ki", "setting": "Melanocortin receptor 3; read-out: pKi (converted)", "value": 0.0389, "unit": "µM"}, {"measurement": "Kb", "setting": "Melanocortin receptor 4 [10]", "value": 28, "unit": "µM"}, {"measurement": "Kb", "setting": "Melanocortin receptor 4 [11]", "value": 32.3, "unit": "µM"}, {"measurement": "Kb", "setting": "Melanocortin receptor 4 [12]", "value": 33, "unit": "µM"}, {"measurement": "Kb", "setting": "Melanocortin receptor 4 [13]", "value": 6, "unit": "µM"}]}]}
